The nature of series [1]: INFOGEST static in vitro gastrointestinal digestion, bioaccessibility from T. ferdinandiana freeze-dried powder. The series is classed as in vitro ADME. The protocol: Freeze-dried T. ferdinandiana powder (0.5 g) was mixed with 20 mL milli-Q water, vortexed, and used as the initial starting material for in vitro gastrointestinal digestion based on the INFOGEST model detailed in Section INFOGEST Gastrointestinal in vitro Digestion ([14]). Digestions were performed in duplicate with samples collected at various time points throughout the digestion process. Gastric digesta samples were collected at t = 0 (G0) and t = 60 (G60) min into the gastric phase, and intestinal digesta were collected at t = 30 (I30), t = 60 (I60), and t = 120 (I120) min into the intestinal digestion phase.
A harmonized in vitro gastrointestinal digestion method developed in the COST action INFOGEST network was applied ([14]). Oral phase was not included in this experiment as T. ferdinandiana fruit is currently marketed as freeze-dried powder that would not undergo a substantial oral phase or may be incorporated into a nutraceutical product in pill, capsule, or beverage form. The digestive fluids (simulated salivary fluid (SSF), simulated gastric fluid (SGF), and simulated intestinal fluid (SIF)) were prepared according to the INFOGEST method ([14]). The activity of all enzymes was also measured according to the protocols described in the INFOGEST method ([14]) to ensure standardized application. […] Porcine pancreatin was used at 16 units/mL trypsin activity. […] Figure 1 provides an overview of the digestion protocols and conditions employed in the study. At the end of each digestion steps, samples were collected and snap-frozen (−80°C) to stop the digestion. Pefabloc at a concentration of 0.1 M was recommended to stop intestinal digestion; however, considering the cytotoxic nature of Pefabloc at a concentration ≥ 0.25 mM, Pefabloc was not applied to avoid future cell toxicity.
The samples were centrifuged and filtered through 0.22 μm syringe filters prior to analysis. An Acquity UHPLC system (Waters Corp., Milford, MA, USA), equipped with a Waters Acquity UHPLC photodiode array (PDA) detection system, was used to carry out the analysis. Empower™ software (Waters Corp., USA) was used to process and quantify peaks after recording the signals. A Waters Acquity HSS T3 analytical column (100 mm × 2.1 mm, 1.8 μm particle size) (Waters Corp., USA), with an isocratic mobile phase of 0.1% aqueous (v/v) formic acid at a flow rate of 250 μL/min, was used with an injection volume of 2 μL. The absorbance was measured at room temperature at 245 nm.
T. ferdinandiana digesta and intestinal absorption samples were analyzed for EA. All samples were centrifuged and filtered through 0.22 μm PTFE membrane filters (Millipore, CA, USA) before injection into the chromatographic system. Samples were analyzed on a Waters Acquity UHPLC system (Waters Corp., Milford, MA, USA) equipped with PDA detector. A Waters BEH Shield RP18 Column 130 °A, 1.7 μm (100 mm X 2.1 mm) from Waters Corporation (Milford, Massachusetts, USA) was used. Column temperature was maintained at 40°C, the injection volume was 2 μL, PDA spectrum was scanned from 200 to 400 nm with a rate of 2.5 Hz, and detection was carried out at 254 nm. […] Formic acid 0.1% was used for mobile phase A (Milli-Q water) and phase B (acetonitrile) at a flow rate of 0.4 mL/min.
T. ferdinandiana digesta and intestinal absorption samples were cleaned up with a SPE step ([20]) for OA analysis. Mixed reversed phase-[…] anion exchange sorbent Strata® SAX (55 μm, 70 Å, 500 mg/3 mL) was purchased from Phenomenex (Torrance, CA, USA) and used in this study. The SPE process was maintained through an Analytichem VAC ELUT SPS 24 Port Vacuum Manifold from Agilent Varian (Santa Clara, CA, USA). The SPE columns were sequentially conditioned with 3 mL of methanol and 3 mL of milli-Q water. Digesta and intestinal absorption samples at a volume of 1 mL dripped through the cartridges by gravity (with a flow rate of about 1 mL/min). The cartridges were washed with 3 mL of water and 3 mL of methanol.

Series [2] is described as follows: Intestinal absorption assay (Papp, apical to basolateral) across Caco-2-HT29-MTX-E12 coculture on Transwell. The format is in vitro ADME, human. The following applies: human, 10:1 dilution, applied 2 h, read-out: Apparent permeability (Papp). The protocol: (§1) Caco-2 and HT-29-MTX-E12 cells were seeded on Costar Transwell® plate inserts in a ratio of 9:1 and at a density of 1,09,000 cells/cm^2 and 12,120 cells/cm^2, respectively. Cells were cultured in growth media at 37°C and 5% CO2 for 21 days to facilitate cell differentiation and formation of an intact monolayer. During the 21-day differentiation period, growth media was removed and replaced with fresh media every 2–3 days. Cell differentiation of an intact monolayer was monitored by measuring the transepithelial electrical resistance (TEER) of the cell monolayer in an apical–basolateral direction. TEER was measured using the Millicell-ERS Voltohmmeter from Millipore (Burlington, MA, USA). TEER is a measurement of resistance and is a sensitive and convenient method to assess and the integrity of the cell monolayer. The values obtained are determined by cellular resistance (between apical and basolateral membrane) and the paracellular resistance (tight junctions). TEER values above 300 Ω.cm^2 are indicative of differentiated Caco-2-HT29-MTX-E12 cells and an intact monolayer ([17]).
(§2) In vitro absorption was performed by following the procedure described by Osborne and colleagues ([18]). On the day of the intestinal absorption assay, TEER was measured and growth media was replaced with HBSS in the apical and basolateral chambers for 2 h to enhance uptake of the applied digesta. For the absorption study, intestinal digesta samples (I30, I60, and I120) were diluted 10:1 with HBSS. […] In the apical chamber, 200 μL diluted intestinal digesta (I30, I60, and I120) were applied for 120 min. HBSS (600 μL) was added in the basolateral chamber. After 2 h, all apical and basolateral samples were collected and stored at−80°C. HBSS was replaced with growth media in all chambers with TEER values measured again immediately after the assay. TEER was also recorded 24 and 48 h after the assay. Intestinal absorption studies were performed in duplicate. The rate of EA, AA, OA, and Ca^2+ movement across the transwell® membrane was determined by calculating the apparent permeability coefficient (Papp) in cm/s as follows ([19]):
(§3) ΔQ/Δt is steady-state appearance rate of compound in receiver (basolateral) compartment (μmol/s).
(§4) A is the surface area of the filter (i.e., 0.33 cm^2).
(§5) C0 is the initial concentration in the donor (apical) compartment (μM).
(§6) Intestinal absorption of AA, EA, OA, and Ca^2+ from digested T. ferdinandiana powder was measured using Caco-2-HT29-MTX-E12 coculture cell monolayers. Intestinal digesta samples that were collected at different time points (I30, I60, and I120) throughout the in vitro digestion were applied to the coculture transwell model for 120 min before apical and basolateral samples were collected. The amount of AA, EA, OA, and Ca^2+ was measured in the digesta initially applied to the apical chamber of the transwell model, and in samples collected from the basolateral chamber. Apparent permeability (Papp) was calculated with statistical significance observed (p ≤ 0.05) in Papp values obtained from the applied I30, I60, and I120 digesta samples (Figure 4 and Table 2).
(In general: Caco-2 cells form a polarised layer with tight junctions and transporters.)

In series [3] the test system is Caco-2-HT29-MTX-E12 coculture cell monolayers. The description is as above. The series is classed as in vitro ADME, human. The following applies: for In vitro permeability (in words): comparison among AA, EA, OA, Ca^2+; for Apparent permeability (Papp): 10:1 dilution, applied 2 h. The protocol:
as §1, §2, §3, §4, §5, §6

On the set-up of series [4]: method as in PMID 23374081. The following applies: blended fruit juice containing orange, pineapple, and kiwi; cited from earlier work.
The subject of a further series is Caco-2 cell barrier. Also on record: method as in PMID 27738446. The following applies: reported previously; cited from earlier work.
A further series has as its system HepG2 cells. Also noted: method as in PMID 19101929. The following applies: cited from earlier work.
Setting [5] is: Gastric t = 0 (G0), released from T. ferdinandiana fruit matrix.
Where [6] appears, read: Intestinal t = 30 min (I30), pancreatin and bile.
Where [7] appears, read: Gastric t = 60 min (G60), pepsin.
Setting [8] is: intestinal phase, time point not stated.

As a reminder, the Papp is the rate of passage across a membrane or cell layer, normalised by area and donor concentration.

Where “and” joins values, the source holds several entries; their conditions need not be identical. Equal values may be shown once. Entries after “also recorded” stand apart in the source; their conditions may differ. Read-outs that look alike come from different tables or passages of the source. Marks after values point to notes of the source that are not given here.

As to `O=C1O[C@H]([C@@H](O)CO)C(O)=C1O` [AA, ascorbic acid], the Bioaccessibility in series [1] (setting [5]) is 93% and 93 ± 2^a %; in series [1] (setting [6]), 93% and 93 ± 7^a %; in series [1] (Intestinal t = 60 min (I60)), 100% and 100 ± 1^a %; in series [1] (Intestinal t = 120 min (I120)), 79% and 79 ± 5^a %. The Papp at 120 min in series [2] (I30 digesta) was found to be 41 ± 5 ×10⁻⁶ cm/s; in series [2] (I60 digesta) it was 19 ± 0.4 ×10⁻⁶ cm/s; in series [2] (I120 digesta), 10 ± 0.1 ×10⁻⁶ cm/s. In addition, the “In vitro permeability (in words)” value in series [3] was “low apparent permeability; also recorded: in vitro permeability was low”. Moreover, in series [4], the “Recovery after gastric digestion” value was 83%.

Turning to `[Ca+2]` [Ca^2+, calcium], the Bioaccessibility in series [1] (setting [5]) is 67 ± 4^c %; in series [1] (Gastric t = 0 (G0), released from T. ferdinandiana fruit matrix, listed as calcium), 67%; in series [1] (setting [7]), 69 ± 1^a %; in series [1] (setting [6]), 90% and 90^a ± 0.0%; in series [1] (Intestinal t = 60 min (I60)) it was 90% and 90 ± 1^c %; in series [1] (Intestinal t = 120 min (I120)), 79% and 79 ± 2^a %. The same molecule registered a Bioaccessibility in series [1] (setting [8]) of 90%. The results for the “Apparent permeability (Papp)” value in series [3] (I30 digesta), in series [3] (I60 digesta) and in series [3] (I120 digesta) were 60 ± 6^a x 10^−6 cm/s, 56 ± 7^a x 10^−6 cm/s and 50 ± 9^a x 10^−6 cm/s, respectively.

For `O=c1oc2c(O)c(O)cc3c(=O)oc4c(O)c(O)cc1c4c23` [EA, ellagic acid], the Bioaccessibility was 33% and 33 ± 1^b % in series [1] (setting [5]); 42 ± 1^b % in series [1] (setting [7]); 49% and 49 ± 3^b % in series [1] (setting [6]); 49% and 49 ± 1^b % in series [1] (Intestinal t = 60 min (I60)); 48% and 48 ± 1^b % in series [1] (Intestinal t = 120 min (I120)); 48% in series [1] (setting [8]). Moreover, the Papp at 120 min was 796 ± 7 ×10⁻⁶ cm/s in series [2] (I30 digesta), 394 ± 4 ×10⁻⁶ cm/s in series [2] (I60 digesta) and 201 ± 2 ×10⁻⁶ cm/s in series [2] (I120 digesta). Moreover, the “In vitro permeability (in words)” value in series [3] is listed as “highest permeability”. Besides, the Papp in the series with Caco-2 cell barrier is recorded as 0.347 ± 0.018 /10^−6 cm/s. The “Time at which absorption was detected after application” value in the series on HepG2 cells is on record as 15 min. In the series on HepG2 cells, the “Time of peak absorption” value is given as 4 h.

Regarding `O=C(O)C(=O)O` [OA, oxalic acid], the Bioaccessibility was 72% and 72 ± 7^c % in series [1] (setting [5]); 85 ± 2^a % in series [1] (setting [7]); 98% and 99^a ± 0.0% in series [1] (setting [6]); 98 ± 3^a % in series [1] (Intestinal t = 60 min (I60)); 89% and 89 ± 1^a % in series [1] (Intestinal t = 120 min (I120)); 98% in series [1] (setting [8]). For the same molecule, the figures for the Papp at 120 min in series [2] (I30 digesta), in series [2] (I60 digesta) and in series [2] (I120 digesta) were 258 ± 5 ×10⁻⁶ cm/s, 231 ± 1 ×10⁻⁶ cm/s and 150 ± 7 ×10⁻⁶ cm/s, respectively.

These data come from publication PMC8828953, “In vitro Bioaccessibility and Intestinal Absorption of Selected Bioactive Compounds in Terminalia ferdinandiana” (Frontiers in Nutrition, 2022).
